{
  "source": "patent US20150313217A1",
  "about": "“CONTROL AGENT FOR PLANT PEST AND/OR PLANT DISEASE” (RIKEN, priority 2012, published 2015)",
  "assay": "Aggregation and precipitation of polyglycerin fatty acid ester on storage with oxoacid or organic solvent (Example 17)",
  "format": "physicochemical",
  "set-up": "key: 1: equivalent aggregation and precipitation to those of the reference were observed; 2: the aggregation and precipitation were approximately ¾ of those of the reference; 3: the aggregation and precipitation were approximately ½ of those of the reference; 4: the aggregation and precipitation were approximately ¼ of those of the reference; 5: no aggregate and precipitate were observed",
  "conditions": "cool dark place, two months, visual",
  "procedure": "A polyglycerin fatty acid ester and phosphoric acid were weighed using an electronic balance and put into a cylindrical plastic container (diameter of […]×height of 77 mm, volume 25 ml) in such a manner that the mixing ratio was 90:10 (mass ratio) (10 mass % of phosphoric acid (approximately 11.1 parts by mass of phosphoric acid per 100 parts by mass of the polyglycerin fatty acid) was added) or 99.9:0.1 (mass ratio) (0.1 mass % of phosphoric acid (approximately 0.1 parts by mass of phosphoric acid per 100 parts by mass of the polyglycerin fatty acid) was added). The total amount was adjusted to 20 ml. Then, the preparation was made uniform by sufficient stirring and mixing. The resultant was left standing in a cool dark place. Two months later, the degree of aggregation and precipitation of the polyglycerin fatty acid ester was visually determined based on the following determination criteria. […] Further, as a reference, a test was conducted by the same method as above using only a polyglycerin fatty acid ester to which no oxoacid or organic solvent was added. Index 1: equivalent aggregation and precipitation to those of the reference were observed. Index 2: the aggregation and precipitation were approximately ¾ of those of the reference.",
  "key": {"[1]": {"conditions": "adding ratio 0.1 % to polyglycerin fatty acid ester"}, "[2]": {"conditions": "adding ratio 10.0 % to polyglycerin fatty acid ester"}},
  "data": [
    {"molecule": "CC(=O)O", "note": "[acetic acid]", "values": [
      {"measurement": "Result (index): degree of aggregation and precipitation of the polyglycerin fatty acid ester", "setting": "[1]", "value": 4},
      {"measurement": "Result (index): degree of aggregation and precipitation of the polyglycerin fatty acid ester", "setting": "[2]", "value": 5}
    ]},
    {"molecule": "CCCCCC", "note": "[normal hexane]", "values": [
      {"measurement": "Result (index): degree of aggregation and precipitation of the polyglycerin fatty acid ester", "setting": "[1]", "value": 3},
      {"measurement": "Result (index): degree of aggregation and precipitation of the polyglycerin fatty acid ester", "setting": "[2]", "value": 4}
    ]},
    {"molecule": "O=P(O)(O)O", "note": "[phosphoric acid]", "values": [
      {"measurement": "Result (index): degree of aggregation and precipitation of the polyglycerin fatty acid ester", "setting": "[1]", "value": 4},
      {"measurement": "Result (index): degree of aggregation and precipitation of the polyglycerin fatty acid ester", "setting": "[2]", "value": 5}
    ]},
    {"molecule": "CC(O)C(=O)O", "note": "(stereo not shown) [lactic acid]", "values": [
      {"measurement": "Result (index): degree of aggregation and precipitation of the polyglycerin fatty acid ester", "setting": "[1]", "value": 4},
      {"measurement": "Result (index): degree of aggregation and precipitation of the polyglycerin fatty acid ester", "setting": "[2]", "value": 5}
    ]},
    {"molecule": "CCO", "note": "[ethyl alcohol]", "values": [
      {"measurement": "Result (index): degree of aggregation and precipitation of the polyglycerin fatty acid ester", "setting": "[1]", "value": 4},
      {"measurement": "Result (index): degree of aggregation and precipitation of the polyglycerin fatty acid ester", "setting": "[2]", "value": 4}
    ]}
  ]
}
